Test results from ChEMBL document CHEMBL1137310, “Stereoselective chemoenzymatic synthesis of the four stereoisomers of l-2-(2-carboxycyclobutyl)glycine and pharmacological characterization at human excitatory amino acid transporter subtypes 1, 2, and 3” (J Med Chem, 2006).

Assays:
Assay type in all cases: functional, cell-based
[1] = target: T1, Excitatory amino acid transporter 3 (Homo sapiens, UniProt P43005); test: Inhibition of human EAAT3 expressed in HEK293 cells by FLIPR membrane potential assay
T1 sequence (P43005 whole entry): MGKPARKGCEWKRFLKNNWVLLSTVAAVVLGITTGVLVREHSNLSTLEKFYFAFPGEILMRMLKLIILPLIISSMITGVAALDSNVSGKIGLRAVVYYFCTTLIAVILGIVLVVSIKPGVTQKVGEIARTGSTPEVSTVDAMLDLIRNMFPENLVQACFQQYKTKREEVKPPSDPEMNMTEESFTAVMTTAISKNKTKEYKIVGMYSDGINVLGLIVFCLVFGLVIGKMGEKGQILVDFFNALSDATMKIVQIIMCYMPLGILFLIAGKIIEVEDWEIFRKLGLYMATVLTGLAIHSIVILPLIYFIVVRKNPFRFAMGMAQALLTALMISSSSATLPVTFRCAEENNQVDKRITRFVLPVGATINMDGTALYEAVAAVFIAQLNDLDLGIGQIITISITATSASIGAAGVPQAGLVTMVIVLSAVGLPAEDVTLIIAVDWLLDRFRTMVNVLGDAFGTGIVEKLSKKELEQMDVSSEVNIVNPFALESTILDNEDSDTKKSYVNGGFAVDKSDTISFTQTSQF

[2] = target: Excitatory amino acid transporter 2 (Homo sapiens, UniProt P43004); test: Inhibition of human EAAT2 expressed in HEK293 cells by FLIPR membrane potential assay
Chain of Excitatory amino acid transporter 2 (P43004 whole entry): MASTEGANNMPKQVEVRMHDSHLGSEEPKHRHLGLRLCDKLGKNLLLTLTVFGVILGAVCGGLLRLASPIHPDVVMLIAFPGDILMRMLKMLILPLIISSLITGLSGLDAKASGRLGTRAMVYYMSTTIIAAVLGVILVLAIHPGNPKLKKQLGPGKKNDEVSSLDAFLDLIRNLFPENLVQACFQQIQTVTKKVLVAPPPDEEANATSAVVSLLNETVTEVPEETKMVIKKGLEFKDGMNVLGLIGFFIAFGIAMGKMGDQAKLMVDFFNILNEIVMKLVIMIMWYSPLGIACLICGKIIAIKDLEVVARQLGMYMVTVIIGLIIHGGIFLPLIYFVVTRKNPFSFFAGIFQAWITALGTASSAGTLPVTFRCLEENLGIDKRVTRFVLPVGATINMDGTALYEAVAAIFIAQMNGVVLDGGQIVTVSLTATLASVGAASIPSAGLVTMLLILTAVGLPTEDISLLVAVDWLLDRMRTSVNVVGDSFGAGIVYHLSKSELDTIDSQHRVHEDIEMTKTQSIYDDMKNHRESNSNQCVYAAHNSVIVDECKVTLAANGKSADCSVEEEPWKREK

[3] = target: Excitatory amino acid transporter 1 (Homo sapiens, UniProt P43003); test: Inhibition of human EAAT1 expressed in HEK293 cells by FLIPR membrane potential assay
Chain of Excitatory amino acid transporter 1 (P43003 whole entry): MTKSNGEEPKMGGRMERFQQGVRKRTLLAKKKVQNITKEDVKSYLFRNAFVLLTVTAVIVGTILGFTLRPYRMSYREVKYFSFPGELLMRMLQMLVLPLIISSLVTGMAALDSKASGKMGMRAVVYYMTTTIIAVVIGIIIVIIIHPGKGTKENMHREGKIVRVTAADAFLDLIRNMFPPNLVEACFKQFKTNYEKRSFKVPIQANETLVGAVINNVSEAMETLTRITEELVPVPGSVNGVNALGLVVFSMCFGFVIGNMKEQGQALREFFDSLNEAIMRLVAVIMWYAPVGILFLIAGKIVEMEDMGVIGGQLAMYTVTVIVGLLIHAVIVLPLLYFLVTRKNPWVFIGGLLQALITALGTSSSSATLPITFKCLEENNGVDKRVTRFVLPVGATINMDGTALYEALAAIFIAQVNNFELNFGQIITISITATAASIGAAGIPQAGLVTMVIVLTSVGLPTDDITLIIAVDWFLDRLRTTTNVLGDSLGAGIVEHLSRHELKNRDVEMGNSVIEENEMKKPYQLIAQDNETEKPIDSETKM

| Structure (SMILES) | Ki [1] [µM] | Ki [2] [µM] | Ki [3] [µM] |
| --- | --- | --- | --- |
| N[C@H](C(=O)O)[C@@H]1CC[C@H]1C(=O)O | 49 | 22 | – |
| N[C@H](C(=O)O)[C@@H]1CC[C@@H]1C(=O)O | 10 | 6.6 | 200 |
